Results on one substance are retold here after patent US20240287065A1, “COMPOUND AS CDK KINASE INHIBITOR AND USE THEREOF” (TYK MEDICINES (ZHENGZHOU) , INC., priority 2021, published 2024).

pIC50: −log10 of the molar value. Like-named read-outs stand apart in the source and are kept apart here.

What is called TGI is how far tumour growth fell short of that in controls. The term IC50 denotes the concentration at which inhibition is half-maximal. High values mean lower potency, low ones higher potency.

Experiment [1] relates to MCF-7-Palbo-R cells. Kind of experiment: MCF-7-Palbo-R cell antiproliferative assay (BrdU ELISA). It counts as cell-based. The note with it: for pIC50: 72 hours, BrdU. The protocol: 1. Experimental Materials • MCF-7/palbo-R • EMEM medium (ATCC, 30-2003); DMEM/F12 medium (Gibco-1 1330-032) • Fetal bovine serum (cellmax-SA21 1.02) • DMSO (SIGMA, D2650) • BrdU ELISA cell proliferation assay kit (Roche, 11647229001) • ELISA (e.g. MD-SpectraMax ID5 or EnVision)
2. Experimental protocol • 1. Cell spreading • 1) Cells were counted, the concentration of cell suspension was adjusted • 2) The MCF7/Palbo-R cell suspension was seeded in 96-well plates at […] volume to make the number of cells per well is 4000-5000; • 3) Blank control group was added with 90 μl of culture medium; • 2. […] A 3-fold serial gradient dilution was performed with 0.1% DMSO medium for a total of 9 concentrations, and the concentrations of the compounds after dilution were as follows: • 10000 nM, 3333.33 nM, 1111.11 nM, 370.34 nM, 123.45 nM, 41.15 nM, 13.72 nM, 4.57 nM, and 1.52 nM. • b) After 72 hours of compound treatment. • 1) A 10 mM of Brdu stock solution was diluted with RPMI medium and added to a 96-well plate at 20 uL/well and shaken at 350 rpm for 10 minutes. • 2) The 96 well plate was placed back into the incubator for 1 or 2 hours. • 3) After the medium was removed from the 96-well plate, 200 ul/well of Fixation/Denaturation solution was added and incubated for 30 minutes at room temperature. • 4) The fixation solution was removed and 100 ul of peroxidase-coupled anti-Brdu antibody solution (antibody dilution prepared at 1:100 dilution) was added, • and incubated at 350 rpm for 1 hour at room temperature. • 6) The 96-well plate was washed three times with 300 ul/well of PBS. • 8) 100ul of peroxidase substrate solution was added and shaken at 350 rpm for about 10-20 minutes at room temperature, • until the DMSO-treated cell control wells turn a medium blue color. If a color is too dark, it will cause the absorbance value to out of the reading range. • 9) The reaction was terminated by the addition of 25 ul of 1 M sulfuric acid. Shake to ensure uniform color. • 10) The absorbance at 450 nm was recorded. • 3. Data analysis • The inhibition rate is calculated using the following equation:
IR (%)=(1−(RLU compound−RLU blank)/(RLU control−RLU blank))*100%.
On the technique in general: Incorporation of labelled thymidine or its analogues reports DNA synthesis.

The test system of experiment [2] is MV4-11 cells. The experiment can be described thus: MV4-11 xenograft tumor model. The note with it: 20 mg/kg, oral tube feeding once a day for 15 days, NOD/SCID mice. The class given is in vivo. The protocol:
MV-4-11 cells were cultured in IMEM culture medium containing 10% fetal bovine serum. Cells in the exponential growth phase were collected, and the cells were resuspended in PBS to a suitable concentration for subcutaneous tumor inoculation in nude mice.
To establish a xenograft tumor model, 5×10^6 MV4-11 cells were suspended in 0.1 mL of a 1:1 mixture of PBS and Matrigel and injected subcutaneously into the right dorsal side of 6-8-week-old NOD/SCID mice. Tumor growth was observed periodically, and the volume (volume=½×(length×width^2)) was measured with a vernier caliper. When the tumors grew to an average volume of 100˜150 mm^3, the drug was administered to mice (12 days after inoculation) in random groups according to the tumor size and their body weights. […] Among them, the mice in the Vehicle, 10 mg/kg TY-3301, 10 mg/kg C3, and 20 mg/kg C3 groups were administered twice a day by oral tube feeding for 15 days, and the mice in the 20 mg/kg TY-3300 group were administered once a day by oral tube feeding for 15 days. Tumor volume and animal weight were measured twice a week and continued until the end of the experiment. Dosing day was defined as day 0. Measurement time points were day 0, day 3, day 7, day 10, day 14, and day 15. All mice were euthanized by cervical dislocation. At the end of the experiment, tumors were collected and weighed to calculate TGI values (see Table 6).

Experiment [3] has as its system OVCAR-3 cells. Kind of experiment: OVCAR-3 xenograft tumor model. As to conditions: 60 mg/kg, oral tube feeding once daily for 21 days, BALB/c nude female mice. The class given is in vivo. The protocol: OVCAR-3 cells were cultured in RPMI1640 culture medium containing 20% fetal bovine serum and 10 μg/mL Insalin. Cells in the exponential growth phase were collected, and the cells were resuspended in the mixed solution of PBS and Matrigel in a ratio of 1:1 to a suitable concentration for subcutaneous tumor inoculation in nude mice.
To establish a xenograft tumor model, 1×10^7 OVCAR-3 cells were suspended in 0.2 mL of a mixture of PBS and Matrigel (1:1) and injected subcutaneously into 6-8-week-old BALB/c nube female mice on the right back. Tumor growth was observed periodically, and the volume (volume=½[…](length×width 2)) was measured with a vernier caliper. When the tumors grew to an average volume of 100˜150 mm^3, the drug was administered to mice (27 days after inoculation) in random groups according to the tumor size and their body weights. […] Tumor volume and animal weight were measured twice a week and continued until the end of the experiment. Dosing day was defined as day 0. Measurement time points were day 0, day 3, day 7, day 10, day 14, day 17 and day 21. All mice were euthanized by cervical dislocation. At the end of the experiment, tumors were collected and weighed to calculate TGI values (see Table 5).

Experiment [4] has as its system MCF7 cells. Kind of experiment: Cell proliferation inhibition assay (MTT, 7 days). The class given is cell-based. As to conditions: 7 days incubation. The method, boiled down: (§1)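 Cells were seeded per well at 3000 (MCF7, T47D), 2500 (OVCAR3) or 2000 (HCC1806) and attached overnight. Nine 3-fold compound dilutions (10000-1.52 nM before addition to cells, 0.1% DMSO medium) were applied for 7 days, refreshed on day 4, in 4 replicates. MTT (3 h) was read at 570 nm, normalised to DMSO and blank, and IC50 fitted by three-parameter curve.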

Experiment [5] has as its system HCC1806 cells. Kind of experiment: Cell proliferation inhibition assay (MTT, 7 days). The note with it: HCC1086 [sic], 7 days incubation. It counts as cell-based. The procedure, abridged:
as §1

In experiment [6] the test system is T47D cells. Kind of experiment: Cell proliferation inhibition assay (MTT, 7 days). The note with it: 7 days incubation. The class given is cell-based. The procedure, abridged:
as §1

Experiment [7] concerns OVCAR3 cells. The experiment can be described thus: Cell proliferation inhibition assay (MTT, 7 days). It counts as cell-based. The note with it: 7 days incubation. The method, boiled down: as §1

Consider Palbociclib [reference compound], for which the pIC50 is 5.40 in experiment [1] (read-out: AbsIC50) and 5.15 in experiment [1] (read-out: ReIC50). In experiment [1] (bottom of inhibition curve), the “Bottom(%)” value was −3.542%. In experiment [1] (top of inhibition curve), the “Top(%)” value amounted to 68.840%. Also, the TGI is 39% in experiment [2] and 27.7% in experiment [3]. In addition, the IC50 in experiment [4] is at most 50 nM; in experiment [5], over 1000 nM; in experiment [6], 50 to 5200 nM; in experiment [7] it was over 1000 nM.
